Laboratory results published in ChEMBL document CHEMBL5131462, “5'-Phosphonate modified oligoadenylates as potent activators of human RNase L” (Bioorg Med Chem, 2022).

Legend:
[1] = organism: Homo sapiens; assay: Activation of human RNase L using [CY5]-r(C11-UUC7)- [BHQ2] as substrate assessed as cleavage of fluorescent substrate by measuring increase in fluorescence at 100 nM incubated for 30 mins by FRET assay relative to control; conditions: filed as activator
[2] = Activation of human RNase L using [CY5]-r(C11-UUC7)- [BHQ2] as substrate assessed as cleavage of fluorescent substrate by measuring increase in fluorescence incubated for 30 mins by FRET assay
[3] = organism: Homo sapiens; assay: Activation of human RNase L assessed as reduction in Vmax using varying concentrations of [CY5]-r(C11-UUC7)- [BHQ2] as substrate incubated for 30 mins by FRET assay relative to control; design: scale not given: the % may be the effect or the level left; conditions: filed as activator

Activity [1] [%] | EC50 [2] [nM] | Activity [3] [%] | SMILES
> 75 | 20.9 | – | Nc1ncnc2c1ncn2[C@@H]1O[C@H](COP(=O)(O)O[C@@H]2[C@H](O)[C@@H](COP(=O)(O)O[C@@H]3[C@H](O)[C@@H](CNC(=O)P(=O)(O)O)O[C@H]3n3cnc4c(N)ncnc43)O[C@H]2n2cnc3c(N)ncnc32)[C@@H](O)[C@H]1O
> 75 | 35.7 | – | C[C@]1(OCP(=O)(O)O)O[C@@H](n2cnc3c(N)ncnc32)[C@H](OP(=O)(O)OC[C@H]2O[C@@H](n3cnc4c(N)ncnc43)[C@H](OP(=O)(O)OC[C@H]3O[C@@H](n4cnc5c(N)ncnc54)[C@H](O)[C@@H]3O)[C@@H]2O)[C@@H]1O
> 75 | 33.8 | 33 | Nc1ncnc2c1ncn2[C@@H]1O[C@H](COP(=O)(O)O[C@@H]2[C@H](O)[C@@H](COP(=O)(O)O[C@@H]3[C@H](O)[C@@H](CSCP(=O)(O)O)O[C@H]3n3cnc4c(N)ncnc43)O[C@H]2n2cnc3c(N)ncnc32)[C@@H](O)[C@H]1O
> 75 | 46.1 | 33 | Nc1ncnc2c1ncn2[C@@H]1O[C@H](COP(=O)(O)O[C@@H]2[C@H](O)[C@@H](COP(=O)(O)O[C@@H]3[C@H](O)[C@@H](COCP(=O)(O)O)O[C@H]3n3cnc4c(N)ncnc43)O[C@H]2n2cnc3c(N)ncnc32)[C@@H](O)[C@H]1O
> 75 | 18.9 | – | Nc1ncnc2c1ncn2[C@@H]1O[C@H](COP(=O)(O)O[C@@H]2[C@H](O)[C@@H](COP(=O)(O)O[C@@H]3[C@H](O)[C@@H](OCP(=O)(O)O)O[C@H]3n3cnc4c(N)ncnc43)O[C@H]2n2cnc3c(N)ncnc32)[C@@H](O)[C@H]1O
– | 15.3 | – | Nc1ncnc2c1ncn2[C@@H]1O[C@H](COP(=O)(O)O[C@@H]2[C@H](O)[C@@H](COP(=O)(O)O[C@@H]3[C@H](O)[C@@H](COP(=O)(O)O)O[C@H]3n3cnc4c(N)ncnc43)O[C@H]2n2cnc3c(N)ncnc32)[C@@H](O)[C@H]1O
> 75 | 55.2 | 33 | Nc1ncnc2c1ncn2[C@@H]1O[C@H](COP(=O)(O)O[C@@H]2[C@H](O)[C@@H](COP(=O)(O)O[C@@H]3[C@H](O)[C@@H](COCC(O)P(=O)(O)O)O[C@H]3n3cnc4c(N)ncnc43)O[C@H]2n2cnc3c(N)ncnc32)[C@@H](O)[C@H]1O (stereo partly specified)
